Test results reported in paper PMC6193035, “Novel small molecules affecting cell membrane as potential therapeutics for avian pathogenic Escherichia coli” (Scientific Reports, 2018).
Converted amounts (≈) assume the structure as drawn. Marks after values point to notes of the source that are not given here.

Assays:
APEC O1-63 = experiment: MIC and MBC determination in M63 media; type: cell-based; details: Escherichia coli; APEC O1-63, M63 media
APEC O78 [1] = experiment: Crystal violet (CV) uptake assay; type: cell-based, Escherichia coli; details: 2X MBC, 30 mins; P < 0.05, Student's t-test
Description: (§1) Membrane permeability assays (crystal violet (CV) uptake and loss of 260/280 nm absorbing materials) were conducted as described previously. […] CV uptake was measured using the formula: (OD DMSO − OD SM/OD DMSO × 100). Two independent experiments in duplicates were conducted.

APEC O15 = experiment: MIC and MBC determination in M63 media; type: cell-based; details: Escherichia coli
APEC O8 = experiment: MIC and MBC determination in M63 media; type: cell-based; details: Escherichia coli
APEC O1 = experiment: MIC and MBC determination in M63 media; type: cell-based; details: Escherichia coli
[2] = system: biofilm embedded APEC O78; experiment: MBEC High-throughput (HTP) assay; type: cell-based, Escherichia coli; details: 18 h challenge in M63 media
Description: The effect of cidal SMs against biofilm embedded APEC was determined using MBEC High-throughput (HTP) assay (Innovotech Inc., AB, Canada)[22]. Briefly, 150 μL of 0.05 OD600 adjusted APEC O78 culture was aliquoted into each well of the MBEC device containing polystyrene pegs and incubated at 37 °C for 36 h in LB media under stationary condition. […] The plate was incubated in the dark for 18 h at 37 °C with rotation at 110 rpm. The DMSO (1%) and […] media were used as positive and negative controls, respectively. Following incubation, MIC of SMs in challenged plate was recorded. The SMs exposed pegs were then transferred to a new 96-well plate containing PBS and sonicated for 30 mins (Aquasonic ultrasonic cleaner, VWR) to disrupt the biofilm. The sonicated suspensions were ten-fold serially diluted and plated on LB agar plate. Biofilm embedded APEC bacteria were enumerated and minimum biofilm eradication concentration (MBEC) of SMs were determined as described previously. Two independent experiments were conducted.

APEC O109 = experiment: MIC and MBC determination in M63 media; type: cell-based; details: Escherichia coli
APEC O18 = experiment: MIC and MBC determination in M63 media; type: cell-based; details: Escherichia coli
APEC O2 = experiment: MIC and MBC determination in M63 media; type: cell-based; details: Escherichia coli
APEC O78 [3] = experiment: MIC and MBC determination in M63 media; type: cell-based, Escherichia coli
Description: (§2) One microlitre SM of each concentration was transferred to each well of a 96-well plate containing 100 µL of the 0.05 OD600 adjusted APEC O78 culture in M63 media. Growth was monitored in Sunrise - Absorbance microplate reader as described above. MIC was indicated by lowest concentration of SM with non-elevated OD600 measurement. MBC was determined by absence of APEC growth on LB agar plate following subculture. […] Two independent experiments were conducted.

[4] = system: intracellular APEC O78, O2, and O1 in infected Caco-2, HD11, and THP1 cells; experiment: Intracellular survival assay, statements over all serotypes and cells; type: cell-based, Escherichia coli; details: Escherichia coli, 6 h, O78, O2 and O1; Caco-2, HD11, THP-1; 6 h; read-out: concentration clearing intracellular APEC
Description: (§3) Intracellular survival assay was conducted as described previously[28],[29] to determine the effect of cidal SMs on APEC survival in phagocytic (HD11, THP-1) and non-phagocytic (Caco-2) cells. Briefly, mid-logarithmic phase grown APEC O78, O1, and O2 were washed and adjusted to 1 × 10^7 CFU/mL in cell culture incomplete media (no FBS and antibiotics). One-hundred microlitres adjusted APEC suspension was added at multiplicity of infection (MOI) 10 to wells of 96-well cell culture plate containing cultured macrophage (HD11, THP-1) and epithelial cells (Caco-2) and incubated for 1 h and 3 h, respectively. […] The cells were then lysed with 100 µL of 0.1% Triton X-100 for 5 mins, serially diluted, and plated on LB agar plate to enumerate viable bacteria. The intracellular bacteria in SMs treated wells were compared with DMSO (1%) treated wells. Two independent experiments in duplicate wells for each concentration of SMs were conducted.

APEC O78 [5] = experiment: Bacterial cytological profiling by confocal microscopy; type: cell-based, Escherichia coli; details: 2X MBC, 2 h
Description: Confocal microscopy was used for bacterial cytological profiling (BCP) to identify the cellular pathways targeted by SMs as described previously. […] After incubation, treated cultures were centrifuged, washed, and resuspended in 100 µL PBS. FM4-64 (#T13320 Molecular Probes/Invitrogen) (1 µg/mL) and SYTO-9 (#S34854 Molecular Probes/Invitrogen) (5 µM) were added to the bacterial cultures and incubated for 45 mins at room temperature with shaking at 150 rpm. Cultures were then centrifuged, washed, and resuspended in PBS to 1/10th volume of the original cultures.

APEC O2-211 = experiment: MIC and MBC determination in M63 media; type: cell-based; details: Escherichia coli; APEC O2-211, M63 media
APEC O78-53 = experiment: MIC and MBC determination in M63 media; type: cell-based; details: Escherichia coli; APEC O78-53, M63 media
Description: as §2

APEC O35 = experiment: MIC and MBC determination in M63 media; type: cell-based; details: Escherichia coli
APEC O115 = experiment: MIC and MBC determination in M63 media; type: cell-based; details: Escherichia coli
APEC O78 [6] = experiment: Loss of 260/280 nm absorbing materials assay; type: cell-based, Escherichia coli; details: 2X MBC, 1 h
Description: as §1

[7] = system: intracellular APEC O2 in THP-1 cells; experiment: Intracellular survival assay; type: cell-based, Escherichia coli
Description: as §3

[8] = system: intracellular APEC O2 in Caco-2 cells; experiment: Intracellular survival assay; type: cell-based, Escherichia coli
Description: as §3

COc1cc(CNCCc2ccc3ccccc3c2)ccc1OCC(O)CN1CCCC1 (stereo not drawn) [SM2]
MBC (APEC O1-63): 250 µM (≈ 109 µg/mL) | MIC (APEC O1-63): 200 µM (≈ 86.9 µg/mL) | uptake of crystal violet compared with DMSO (APEC O78 [1]): increased the uptake of crystal violet | MBC (APEC O15): 100 µM (≈ 43.5 µg/mL) | MIC (APEC O15): 100 µM (≈ 43.5 µg/mL) | MBC (APEC O8): 200 µM (≈ 86.9 µg/mL) | MIC (APEC O8): 100 µM (≈ 43.5 µg/mL) | MBC (APEC O1): 250 µM (≈ 109 µg/mL) | MIC (APEC O1): 200 µM (≈ 86.9 µg/mL) | MBEC as multiple of MIC (superscript) [2]: b (1X MIC) | MBC (APEC O109): 200 µM (≈ 86.9 µg/mL) | MIC (APEC O109): 100 µM (≈ 43.5 µg/mL) | MBC (APEC O18): 200 µM (≈ 86.9 µg/mL) | MIC (APEC O18): 100 µM (≈ 43.5 µg/mL) | MBC (APEC O2): 250 µM (≈ 109 µg/mL) | MIC (APEC O2): 200 µM (≈ 86.9 µg/mL) | MBC relative to MIC (APEC O78 [3]): identical to MIC | MIC (APEC O78 [3]; Escherichia coli): 100 µM (≈ 43.5 µg/mL) | MBC (APEC O78 [3]; Escherichia coli, subculture on LB agar): 100 µM (≈ 43.5 µg/mL) | minimal effective concentration [4]: ≥ 100 µM | cytological profile (FM4-64 / SYTO-9 staining) (APEC O78 [5]): bright red foci at random positions throughout the cell indicating membrane defects (membrane pore formers) | MBC (APEC O2-211): 100 µM (≈ 43.5 µg/mL) | MIC (APEC O2-211): 100 µM (≈ 43.5 µg/mL) | MBC (APEC O78-53): 200 µM (≈ 86.9 µg/mL) | MIC (APEC O78-53): 100 µM (≈ 43.5 µg/mL) | MBC (APEC O35): 200 µM (≈ 86.9 µg/mL) | MIC (APEC O35): 100 µM (≈ 43.5 µg/mL) | MBC (APEC O115): 200 µM (≈ 86.9 µg/mL) | MIC (APEC O115): 200 µM (≈ 86.9 µg/mL) | 280 nm absorbing materials in supernatant compared with DMSO (APEC O78 [6]): significantly (P < 0.05, Student’s t-test) increased | Absorbance 280 nm of treated supernatant (APEC O78 [6]; DMSO 2.58, superscript a P < 0.05 vs DMSO): 2.86^a | Absorbance 260 nm of treated supernatant (APEC O78 [6]; DMSO 3.77, superscript a P < 0.05 vs DMSO): 3.71 | minimal effective concentration ([7]; Escherichia coli, O2, THP-1, 6 h treatment, read-out: SMs intracellular APEC clearance concentration): 100 µM | concentration at which the SM significantly (P < 0.01) reduced intracellular APEC (superscript of t-statistic) ([7]; O2, THP-1, 6 h): b (1X MIC) | minimal effective concentration ([8]; Escherichia coli, O2, Caco-2, 6 h treatment, read-out: SMs intracellular APEC clearance concentration): > 200 µM | concentration at which the SM significantly (P < 0.01) reduced intracellular APEC (superscript of t-statistic) ([8]; O2, Caco-2, 6 h): b (1X MIC)
